Experimental data: the NIST ThermoML archive (doi:10.1016/j.fluid.2009.09.015)

Legend:
[1] = refractive index (Na D-line) (dimensionless); conditions: 298.15 K; 101.33 kPa; Liquid; ATAGO RX-5000 refractometer with Hero Therm thermostat
[2] = Liquid; for mass density: 298 K, Vibrating tube method; for mass density / viscosity: 101.33 kPa; for viscosity: 298.15 K, Capillary tube (Ostwald / Ubbelohde) method; for Normal boiling temperature: Ebulliometric method (Recirculating still)
[3] = xn = mol fraction of the nth substance listed; conditions: 298.15 K, 101 kPa, Liquid; for viscosity: Capillary tube (Ostwald / Ubbelohde) method; for mass density: Vibrating tube method
[4] = refractive index (Na D-line) (dimensionless); xn = mol fraction of the nth substance listed; conditions: 298.15 K, 101 kPa, Liquid, ATAGO RX-5000 refractometer with Hero Therm thermostat

CCCCCCCCn1cc[n+](C)c1.O=S(=O)([N-]S(=O)(=O)C(F)(F)F)C(F)(F)F
Conditions | mass density [kg/m3] | refractive index | viscosity [mPa·s]
[1] | – | 1.43298 | –
[2] | 1320.59 | – | 92.51

CCCCCCCCn1cc[n+](C)c1.O=S(=O)([N-]S(=O)(=O)C(F)(F)F)C(F)(F)F + CC(=O)OC(C)C
Conditions | mass density, [3] [kg/m3] | refractive index, [4] | viscosity, [3] [mPa·s]
x2 = 0.0415 | 1314.43 | 1.43222 | 81.81
x2 = 0.0984 | 1305.77 | 1.4313 | 70.33
x2 = 0.1644 | 1294.72 | 1.43009 | 58.16
x2 = 0.2055 | 1287.14 | 1.42923 | 51.89
x2 = 0.301 | 1267.67 | 1.42702 | 38.25
x2 = 0.3956 | 1244.68 | 1.42458 | 26.57
x2 = 0.4996 | 1214.35 | 1.42091 | 17.09
x2 = 0.5837 | 1184.33 | 1.41742 | 11.42
x2 = 0.7048 | 1129.29 | 1.41083 | 5.785
x2 = 0.8036 | 1068.65 | 1.40324 | 2.993
x2 = 0.8991 | 988.94 | 1.39275 | 1.389

CCCCCCCCn1cc[n+](C)c1.O=S(=O)([N-]S(=O)(=O)C(F)(F)F)C(F)(F)F + CC(C)O
Conditions | mass density, [3] [kg/m3] | refractive index, [4] | viscosity, [3] [mPa·s]
x2 = 0.0331 | 1316.64 | 1.43251 | 85.24
x2 = 0.066 | 1312.4 | 1.43205 | 78.1
x2 = 0.105 | 1307.22 | 1.43149 | 71.48
x2 = 0.1823 | 1295.84 | 1.43031 | 60.13
x2 = 0.2732 | 1280.29 | 1.42862 | 47.98
x2 = 0.3284 | 1269.48 | 1.42746 | 39.87
x2 = 0.4097 | 1250.88 | 1.42551 | 33.13
x2 = 0.5055 | 1224.13 | 1.42269 | 24.79
x2 = 0.5848 | 1196.42 | 1.41988 | 19.09
x2 = 0.6747 | 1155.99 | 1.41568 | 13.79
x2 = 0.7832 | 1087.54 | 1.40856 | 8.606
x2 = 0.8966 | 972.52 | 1.39645 | 4.615

CC(=O)OC(C)C [1-methylethyl ethanoate]
Conditions | Normal boiling temperature [°C] | mass density [kg/m3] | refractive index | viscosity [mPa·s]
[1] | – | – | 1.3748 | –
[2] | 88.30 | 866.21 | – | 0.481

CC(=O)OC(C)C [1-methylethyl ethanoate] + CC(C)O
Conditions | mass density, [3] [kg/m3] | refractive index, [4] | viscosity, [3] [mPa·s]
x1 = 0.1199 | 793.54 | 1.37417 | 1.278
x1 = 0.2041 | 802.03 | 1.37374 | 1.021
x1 = 0.294 | 810.58 | 1.37344 | 0.812
x1 = 0.3802 | 818.32 | 1.3733 | 0.722
x1 = 0.4855 | 827.39 | 1.37331 | 0.635
x1 = 0.5877 | 835.68 | 1.37339 | 0.563
x1 = 0.7138 | 845.52 | 1.37369 | 0.538
x1 = 0.7681 | 849.64 | 1.37383 | 0.515
x1 = 0.8777 | 857.56 | 1.37419 | 0.5

CC(C)O [propan-2-ol]
Conditions | Normal boiling temperature [°C] | mass density [kg/m3] | refractive index | viscosity [mPa·s]
[1] | – | – | 1.37502 | –
[2] | 82.22 | 780.88 | – | 2.073
